Tested on: P12-Ichikawa
Test: cell viability relative to DMSO control; higher = less cytotoxic
Conditions: 48 h
Method in brief: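 Library compounds in DMSO were pin-dosed into 1536-well plates (5 μl) holding NOMO1 or SEM (500 cells/well) or P12-Ichikawa (1000 cells/well) leukemia cells, across an 11-point threefold series of 47 μM to 0.79 nM. Each cell line had been adapted for at least four passages in each medium. CellTiter-Glo One luminescence was read after 48 h at 37°C. Viability is the per-plate percentage relative to DMSO wells, with cell-free wells as background.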

[1] = HPLM + 10% dialyzed FBS, 0.000781 µM
[2] = HPLM + 10% dialyzed FBS, 0.00234 µM
[3] = HPLM + 10% dialyzed FBS, 0.00702 µM
[4] = HPLM + 10% dialyzed FBS, 0.0211 µM
[5] = HPLM + 10% dialyzed FBS, 0.0632 µM
[6] = HPLM + 10% dialyzed FBS, 0.19 µM
[7] = HPLM + 10% dialyzed FBS, 0.569 µM
[8] = HPLM + 10% dialyzed FBS, 1.71 µM
[9] = HPLM + 10% dialyzed FBS, 5.12 µM
[10] = HPLM + 10% dialyzed FBS, 15.4 µM
[11] = HPLM + 10% dialyzed FBS, 46.1 µM
[12] = RPMI 5 mM glucose + 10% FBS, 0.000781 µM
[13] = RPMI 5 mM glucose + 10% FBS, 0.00234 µM
[14] = RPMI 5 mM glucose + 10% FBS, 0.00702 µM
[15] = RPMI 5 mM glucose + 10% FBS, 0.0211 µM
[16] = RPMI 5 mM glucose + 10% FBS, 0.0632 µM
[17] = RPMI 5 mM glucose + 10% FBS, 0.19 µM
[18] = RPMI 5 mM glucose + 10% FBS, 0.569 µM
[19] = RPMI 5 mM glucose + 10% FBS, 1.71 µM
[20] = RPMI 5 mM glucose + 10% FBS, 5.12 µM
[21] = RPMI 5 mM glucose + 10% FBS, 15.4 µM
[22] = RPMI 5 mM glucose + 10% FBS, 46.1 µM
[23] = RPMI 5 mM glucose + 10% dialyzed FBS, 0.000781 µM
[24] = RPMI 5 mM glucose + 10% dialyzed FBS, 0.00234 µM
[25] = RPMI 5 mM glucose + 10% dialyzed FBS, 0.00702 µM
[26] = RPMI 5 mM glucose + 10% dialyzed FBS, 0.0211 µM
[27] = RPMI 5 mM glucose + 10% dialyzed FBS, 0.0632 µM
[28] = RPMI 5 mM glucose + 10% dialyzed FBS, 0.19 µM
[29] = RPMI 5 mM glucose + 10% dialyzed FBS, 0.569 µM
[30] = RPMI 5 mM glucose + 10% dialyzed FBS, 1.71 µM
[31] = RPMI 5 mM glucose + 10% dialyzed FBS, 5.12 µM
[32] = RPMI 5 mM glucose + 10% dialyzed FBS, 15.4 µM
[33] = RPMI 5 mM glucose + 10% dialyzed FBS, 46.1 µM

SMILES	cell viability [1] [%]	cell viability [2] [%]	cell viability [3] [%]	cell viability [4] [%]	cell viability [5] [%]	cell viability [6] [%]	cell viability [7] [%]	cell viability [8] [%]	cell viability [9] [%]	cell viability [10] [%]	cell viability [11] [%]	cell viability [12] [%]	cell viability [13] [%]	cell viability [14] [%]	cell viability [15] [%]	cell viability [16] [%]	cell viability [17] [%]	cell viability [18] [%]	cell viability [19] [%]	cell viability [20] [%]	cell viability [21] [%]	cell viability [22] [%]	cell viability [23] [%]	cell viability [24] [%]	cell viability [25] [%]	cell viability [26] [%]	cell viability [27] [%]	cell viability [28] [%]	cell viability [29] [%]	cell viability [30] [%]	cell viability [31] [%]	cell viability [32] [%]	cell viability [33] [%]
Cn1cc(-c2ccc3nnc(C(F)(F)c4ccc5ncccc5c4)n3n2)cn1	116	117	117	116	113	115	109	108	101	95.8	82.9	114	117	117	124	109	113	113	106	107	101	81.7	119	112	120	118	113	119	118	112	101	102	85.6
N=C(N)NC(=O)c1nc(Cl)c(N)nc1N	106	116	114	127	120	116	130	120	59.8	16.9	9.59	–	–	–	–	–	–	–	–	–	–	–	104	114	115	124	115	126	130	128	116	56.1	17.5
O=C(/C=C/c1c(C(=O)[O-])[nH]c2cc(Cl)cc(Cl)c12)Nc1ccccc1	106	111	105	103	116	114	115	116	113	111	109	98	105	107	106	108	110	112	120	104	107	106	103	99.5	107	110	107	108	103	107	66.2	108	113
CN1\C(=C(\O)C2=C(C=CS2)[S+]1([O-])=O)C(=O)NC3=CC=CC=N3	110	105	114	116	114	111	110	105	106	103	104	110	128	119	116	118	118	118	92.1	103	97.9	101	117	113	116	115	118	111	110	109	100	105	109
C[N+]1(C)[C@@H]2C[C@@H](OC(=O)[C@H](CO)c3ccccc3)C[C@H]1[C@@H]1O[C@@H]12.[Br-]	88.6	94.2	94.3	102	104	104	96.9	90.8	100	106	102	95	103	105	99.1	108	99.2	101	98.7	97.8	122	110	82.4	47.6	90.7	90.7	97.8	99.5	101	89.9	91.2	99.6	103
Cc1nccn1CC1CCc2c(c3ccccc3n2C)C1=O (centres undefined)	124	125	121	128	127	127	111	106	103	112	108	–	–	–	–	–	–	–	–	–	–	–	115	124	124	125	126	112	117	118	116	114	105
CCC[C@H](N[C@@H](C)C(=O)N1[C@H](C(=O)O)C[C@@H]2CCCC[C@@H]21)C(=O)OCC	110	108	109	113	104	115	112	109	93.2	88.1	84.7	106	103	121	112	117	108	106	97.9	77.1	79.5	71.6	124	99	113	111	122	116	103	110	87.3	78.3	69.8
Cn1c(Nc2ccc(C(F)(F)F)cc2)nc2cc(Oc3ccnc(-c4nc(C(F)(F)F)c[nH]4)c3)ccc21	120	112	119	93	133	125	126	123	111	81.8	27.1	–	–	–	–	–	–	–	–	–	–	–	–	–	–	–	–	–	–	–	–	–	–
COc1cc2c(Oc3ccc(NC(=O)C4(C(=O)Nc5ccc(F)cc5)CC4)cc3F)ccnc2cc1OCCCN1CCOCC1	86.3	90.5	87	88.8	81.2	81.8	78.5	38.7	8.94	8.26	5.1	83.8	90.3	84.8	83.5	85.7	74.3	77.1	59.5	10	11	4.54	86.2	82.9	86.6	89.3	85.4	80	88.2	44.6	14.7	12.4	4.34
COc1cc2c(Nc3ccc(Cl)c(Cl)c3F)ncnc2cc1OC[C@@H]1C[C@@H]2CN(C)C[C@@H]2C1	105	115	118	126	119	111	109	83.2	71.1	49.5	10.1	–	–	–	–	–	–	–	–	–	–	–	–	–	–	–	–	–	–	–	–	–	–
